Laboratory results taken from article PMC3100252, “A theoretical entropy score as a single value to express inhibitor selectivity” (BMC Bioinformatics, 2011).
Where two headings read alike, the source gives them in different places.

Legend:
222 human kinases = test: Millipore kinase profiling (radioactive filter binding activity assay at [ATP] = KM,ATP) and selectivity metrics calculated from it; format: biochemical; design: selectivity score: scale not given here; details: for Ka-Gini score / Pmax / S10x / selectivity score: calculated from Millipore activity data; for selectivity entropy: calculated from Millipore activity data (pEC50), [ATP] = KM,ATP
From the text: As a next step we selected 16 compounds from the public profile (Ambit), and measured activity data on these using a different profiling service (Millipore, data available as Additional file 2). […] Also for these new data, we calculated the selectivity metrics (Uitdehaag_S2). In the ideal case, the selectivity values are similar irrespective of profiling technology (in the same way that a Kd value is ideally independent of laboratory and assay format). The data of both methods are plotted in Figure 2.
(§1) It is worth to note that the partition coefficient is the same as ϕl in our entropy equation (eq. 2).
The Gini score was calculated from data on %-inhibition. […] In addition, to work more directly with Kds, we also introduce a Ka-Gini score, in which association constants are used for rank-ordering the kinase profile. […] All calculations were done in Microsoft Excel.
For comparing profiles across methods (Figure 2), we selected 16 kinase inhibitors of the Ambit profile (Table 2) and submitted these to the kinase profiling service from Millipore (http://www.millipore.com/drugdiscovery/svp3/kpservices, data available as Additional file 2). Both profiling methods are described earlier and differ (among other variations) in the following way: Ambit uses a competitive binding setup in absence of ATP on kinases from T7 or HEK293 expression systems. Millipore uses a radioactive filter binding activity assay, with kinases purified from Escherichia coli or baculovirus expression systems.

[1] = test system: 290 kinases (excluding mutants); details: cited from earlier work
[2] = test system: 290 kinases (excluding mutants); format: binding; details: for Ka-Gini: Gini score calculated directly on Kas of the Ambit dataset (Kds of ref 5); for entropies (selectivity entropy, Ssel): calculated from Kds of the Ambit dataset (ref 5); for entropies (selectivity entropy, Ssel) / number of kinases inhibited below 3 μM: 290 kinases; for number of kinases inhibited below 3 μM: Ambit profile
From the text: Having defined the entropy, we next investigated its performance relative to the most widely-used methods, on a public profiling dataset of 38 inhibitors on 290 non-mutant kinases (Table 1 and Additional file 1). […] To this we added a Ka-Gini value and the selectivity entropy. The Ka-Gini is a Gini score directly calculated on Kas, without reverting to %-inhibition values (see below). […] In addition, to get an overview of the profiling raw data, we appended an activity-based heat map (Uitdehaag_S1).
as §1
The Gini score was calculated from data on %-inhibition. […] In addition, to work more directly with Kds, we also introduce a Ka-Gini score, in which association constants are used for rank-ordering the kinase profile. […] All calculations were done in Microsoft Excel. […]

[3] = Ambit dataset, 38 inhibitors on 290 non-mutant kinases, values taken from earlier work
[4] = Ambit dataset, fraction of kinases hit at 10 times the Kd of the target, values taken from earlier work
[5] = Ambit dataset, fraction of kinases hit below 3 μM, values taken from earlier work
[6] = Ambit dataset, values taken from earlier work
[7] = rank among 38 inhibitors, Ambit dataset

Structure (SMILES) | Ka-Gini score (222 human kinases) | Pmax (222 human kinases) | S10x (222 human kinases) | Gini [1, 3] | Ka-Gini [2] | S10x [1, 4] | Pmax (partition index) [1, 6] | entropies (selectivity entropy, Ssel) [2] | also measured
O=C(NOC[C@H](O)CO)c1ccc(F)c(F)c1Nc1ccc(I)cc1F [PD-0325901] | 1.000 | 0.857 | 0.002 |  |  |  |  |  | selectivity score (222 human kinases): 0.005; selectivity entropy (222 human kinases): 0.550
C[C@@H]1CCN(C(=O)CC#N)C[C@@H]1N(C)c1ncnc2[nH]ccc12 [CP-690550, tasocitinib] | 0.995 | 0.481 | 0.005 | 0.66 |  |  |  |  | 
Clc1ccc(Nc2nnc(Cc3ccncc3)c3ccccc23)cc1 [PTK-787] |  |  |  |  |  |  |  |  | Gini [1]: 0.71
CN1CC[C@H](c2c(O)cc(O)c3c(=O)cc(-c4ccccc4Cl)oc23)[C@H](O)C1 [Flavopiridol] |  |  |  | 0.77 | 0.95 |  |  |  | 
C=CC(=O)Nc1cc2c(Nc3ccc(F)c(Cl)c3)ncnc2cc1OCCCN1CCOCC1 [CI-1033] |  |  |  | 0.72 | 0.99 |  |  |  | 
CC(C)(C)c1cnc(CSc2cnc(NC(=O)C3CCNCC3)s2)o1 [SNS-032] |  |  |  |  | 0.97 |  |  |  | 
Cc1cn(-c2cc(NC(=O)c3ccc(C)c(Nc4nccc(-c5cccnc5)n4)c3)cc(C(F)(F)F)c2)cn1 [nilotinib] | 0.980 | 0.208 | 0.027 |  |  |  |  |  | selectivity score (222 human kinases): 0.095; selectivity entropy (222 human kinases): 2.360
Cn1c(Nc2ccc(C(F)(F)F)cc2)nc2cc(Oc3ccnc(-c4ncc(C(F)(F)F)[nH]4)c3)ccc21 [CHIR265] | 0.982 | 0.304 | 0.014 | 0.74 | 0.96 |  |  |  | 
COCC(=O)NC/C=C/c1ccc2ncnc(Nc3ccc(Oc4ccc(C)nc4)c(C)c3)c2c1 [CP-724714] |  |  |  | 0.49 | 0.99 | 0.01 | 0.33 | 1.10 | S3uM (selectivity score S(3 μM)) [1, 5]: 0.02
Cn1cnc2c(F)c(Nc3ccc(Br)cc3Cl)c(C(=O)NOCCO)cc21 [AZD6244] | 1.000 | 0.999 | 0.002 |  |  |  |  |  | selectivity entropy (222 human kinases): 0.020
CCN(CC)CCNC(=O)c1c(C)[nH]c(/C=C2\C(=O)Nc3ccc(F)cc32)c1C [Sunitinib, sunitinib] |  | 0.107 | 0.038 | 0.67 |  | 0.02 |  |  | number of kinases inhibited below 3 μM [2]: 181 kinases
Cc1nc(Nc2ncc(C(=O)Nc3c(C)cccc3Cl)s2)cc(N2CCN(CCO)CC2)n1 [Dasatinib, dasatinib] | 0.943 | 0.041 | 0.070 | 0.79 | 0.93 |  |  |  | 
C[S+]([O-])c1ccc(-c2nc(-c3ccncc3)c(-c3ccc(F)cc3)[nH]2)cc1 (centres unmarked) [SB-203580] | 0.987 | 0.342 | 0.016 | 0.77 |  | 0.02 |  |  | 
Cc1ccc(Nc2nccc(N(C)c3ccc4c(C)n(C)nc4c3)n2)cc1S(N)(=O)=O [GW-786034] |  |  |  | 0.80 | 0.97 | 0.02 | 0.33 | 2.06 | S3uM (selectivity score S(3 μM)) [1, 5]: 0.21
Cc1ccc(F)c(NC(=O)Nc2ccc(-c3cccc4[nH]nc(N)c34)cc2)c1 [ABT-869, linifanib] | 0.968 | 0.132 | 0.025 | 0.82 | 0.98 | 0.01 | 0.32 | 1.93 | selectivity score (222 human kinases): 0.235; selectivity entropy (222 human kinases): 2.834; S3uM (selectivity score S(3 μM)) [1, 5]: 0.16
CN(C)C[C@@H]1CCn2cc(c3ccccc32)C2=C(C(=O)NC2=O)c2cn(c3ccccc23)CCO1 [LY-333531] |  |  |  | 0.76 | 0.98 |  |  |  | 

Structure (SMILES) | Ka-Gini score (222 human kinases) | Pmax (222 human kinases) | S10x (222 human kinases) | Gini [1, 3] | Ka-Gini [2] | S10x [1, 4] | Pmax (partition index) [1, 6] | entropies (selectivity entropy, Ssel) [2] | also measured
CCOc1cc2ncc(C#N)c(Nc3ccc(F)c(Cl)c3)c2cc1NC(=O)/C=C/CN(C)C [EKB-569] |  |  |  | 0.78 | 0.99 | 0.00 | 0.67 | 0.89 | S3uM (selectivity score S(3 μM)) [1, 5]: 0.18
CCN(CCO)CCCOc1ccc2c(Nc3cc(CC(=O)Nc4cccc(F)c4)[nH]n3)ncnc2c1 [AZD1152HQPA] | 0.993 | 0.603 | 0.007 | 0.78 | 0.98 | 0.02 | 0.34 | 1.91 | selectivity score (222 human kinases): 0.041; selectivity entropy (222 human kinases): 1.366; S3uM (selectivity score S(3 μM)) [1, 5]: 0.10
Cc1ccc(NC(=O)c2ccc(CN3CCN(C)CC3)cc2)cc1Nc1nccc(-c2cccnc2)n1 [Imatinib, imatinib] |  |  |  |  |  |  |  |  | Gini [1]: 0.79; S10x [1]: 0.02
COc1cc2c(Nc3ccc(Br)cc3F)ncnc2cc1OCC1CCN(C)CC1 [ZD-6474, vandetanib] | 0.963 | 0.117 | 0.041 | 0.79 | 0.94 | 0.26 |  |  | number of kinases inhibited below 3 μM [2]: 79 kinases
CO[C@@H]1[C@H](N(C)C(=O)c2ccccc2)C[C@H]2O[C@]1(C)n1c3ccccc3c3c4c(c5c6ccccc6n2c5c31)C(=O)NC4 [PKC-412] |  |  |  | 0.71 | 0.88 |  |  |  | 
CCN1CCN(Cc2ccc(NC(=O)Nc3ccc(Oc4cc(NC)ncn4)cc3)cc2C(F)(F)F)CC1 [AST-487] |  |  |  | 0.73 | 0.95 | 0.04 | 0.11 | 2.74 | S3uM (selectivity score S(3 μM)) [1, 5]: 0.45
COc1ccc(COc2ccc(Cc3cnc(N)nc3N)cc2OC)cc1 [GW-2580] |  |  |  | 0.54 | 0.99 | 0.00 | 0.92 | 0.26 | S3uM (selectivity score S(3 μM)) [1, 5]: 0.01
Nc1nc(Nc2ccc(S(N)(=O)=O)cc2)nn1C(=O)c1c(F)cccc1F [JNJ-7706621] |  |  |  | 0.74 | 0.87 | 0.08 | 0.10 | 3.73 | S3uM (selectivity score S(3 μM)) [1]: 0.37
CS(=O)(=O)CCNCc1ccc(-c2ccc3ncnc(Nc4ccc(OCc5cccc(F)c5)c(Cl)c4)c3c2)o1 [Lapatinib] |  |  |  | 0.57 | 0.99 |  |  |  | 
CC1(C)CNc2cc(NC(=O)c3cccnc3NCc3ccncc3)ccc21 [AMG-706] |  |  |  | 0.82 | 0.97 | 0.04 | 0.22 | 2.36 | S3uM (selectivity score S(3 μM)) [1]: 0.09
Oc1ccc(-c2nc(-c3ccncc3)c(-c3ccc(F)cc3)[nH]2)cc1 [SB-202190] |  |  |  | 0.76 | 0.97 | 0.02 | 0.35 | 2.08 | S3uM (selectivity score S(3 μM)) [1]: 0.09
NC(=O)c1ccc(-c2nc(-c3ccc4c(c3)OCO4)c(-c3ccccn3)[nH]2)cc1 [SB-431542] |  |  |  | 0.42 | 0.98 | 0.01 | 0.14 | 1.56 | S3uM (selectivity score S(3 μM)) [1, 5]: 0.02; IC50 ([1]; Ambit profile, four kinases not named, read-out: IC50s on the four kinases hit with very similar IC50s): 100 to 300 nM; number of kinases inhibited below 3 μM [2]: 5 kinases; selectivity rank by Ka-Gini [2, 7]: 15; selectivity rank by Pmax [2, 7]: 31; selectivity rank by selectivity entropy [2, 7]: 14
CN[C@@H]1C[C@H]2O[C@@](C)([C@@H]1OC)n1c3ccccc3c3c4c(c5c6ccccc6n2c5c31)C(=O)NC4 [Staurosporine] |  |  |  | 0.35 |  | 0.50 |  |  | 
CN1CCN(c2ccc3nc(-c4c(N)c5c(F)cccc5[nH]c4=O)[nH]c3c2)CC1 [CHIR-258] |  |  |  | 0.76 | 0.97 | 0.01 |  |  | 
C#Cc1cccc(Nc2ncnc3cc(OCCOC)c(OCCOC)cc23)c1 [Erlotinib] |  |  |  | 0.75 | 0.99 | 0.00 | 0.67 | 0.88 | S3uM (selectivity score S(3 μM)) [1]: 0.15
COc1cc2ncnc(Nc3ccc(F)c(Cl)c3)c2cc1OCCCN1CCOCC1 [Gefitinib] |  |  |  | 0.65 |  |  |  |  | 
